Source: ChEMBL document CHEMBL5325391, “Spirolactone-type and enmein-type derivatives as potential anti-cancer agents derived from oridonin” (Bioorg Med Chem, 2022)

Columns and labels:
K562 [1] = assay: Antiproliferative activity against human K562 cells assessed as reduction in cell growth after 72 hrs by MTT assay; format: functional, cell-based; details: K562, 72 h
SW480 = assay: Antiproliferative activity against human SW480 cells assessed as reduction in cell growth after 72 hrs by MTT assay; format: functional, cell-based; details: SW480, 72 h
MDA-MB-231 = assay: Antiproliferative activity against human MDA-MB-231 cells assessed as reduction in cell growth after 72 hrs by MTT assay; format: functional, cell-based; details: MDA-MB-231, 72 h
SMMC-7721 = assay: Antiproliferative activity against human SMMC-7721 cells assessed as reduction in cell growth after 72 hrs by MTT assay; format: functional, cell-based; details: SMMC-7721, 72 h
K562 [2] = assay: Potency index, ratio of oridonin IC50 to compound IC50 for antiproliferative activity against human K562 cells after 72 hrs by MTT assay; format: functional
[3] = Cytotoxicity against human L02 cells incubated for 72 hrs by MTT assay; format: toxicity, cell-based
[4] = Selectivity index, ratio of IC50 for human L02 cells to IC50 for human SMMC-7721 cells; format: toxicity; details: L02 cells versus SMMC-7721 cells, read-out: Ratio IC50
K562 [5] = assay: Induction of cell cycle arrest in human K562 cells assessed as accumulation of cells at G1 phase at 100 nM incubated for 48 hrs by PI staining based flow cytometry analysis (reference value: 68.84%); format: functional
K562 [6] = assay: Induction of cell cycle arrest in human K562 cells assessed as accumulation of cells at G2 phase at 100 nM incubated for 48 hrs by PI staining based flow cytometry analysis (reference value: 12.31%); format: functional
K562 [7] = assay: Induction of cell cycle arrest in human K562 cells assessed as accumulation of cells at S phase at 100 nM incubated for 48 hrs by PI staining based flow cytometry analysis (reference value: 18.85%); format: functional
K562 [8] = assay: Induction of cell cycle arrest in human K562 cells assessed as accumulation of cells at G1 phase at 200 nM incubated for 48 hrs by PI staining based flow cytometry analysis (reference value: 68.84%); format: functional
K562 [9] = assay: Induction of cell cycle arrest in human K562 cells assessed as accumulation of cells at G2 phase at 200 nM incubated for 48 hrs by PI staining based flow cytometry analysis (reference value: 12.31%); format: functional
K562 [10] = assay: Induction of cell cycle arrest in human K562 cells assessed as accumulation of cells at S phase at 200 nM incubated for 48 hrs by PI staining based flow cytometry analysis (reference value: 18.85%); format: functional
K562 [11] = assay: Induction of cell cycle arrest in human K562 cells assessed as accumulation of cells at G1 phase at 400 nM incubated for 48 hrs by PI staining based flow cytometry analysis (reference value: 68.84%); format: functional
K562 [12] = assay: Induction of cell cycle arrest in human K562 cells assessed as accumulation of cells at G2 phase at 400 nM incubated for 48 hrs by PI staining based flow cytometry analysis (reference value: 12.31%); format: functional
K562 [13] = assay: Induction of cell cycle arrest in human K562 cells assessed as accumulation of cells at S phase at 400 nM incubated for 48 hrs by PI staining based flow cytometry analysis (reference value: 18.85%); format: functional
K562 [14] = assay: Induction of cell cycle arrest in human K562 cells assessed as downregulation of cdc-2 expression incubated for 48 hrs by Western blot analysis; format: functional, cell-based; details: dose 100-400 nM
K562 [15] = assay: Induction of cell cycle arrest in human K562 cells assessed as downregulation of cdc-25c expression incubated for 48 hrs by Western blot analysis; format: functional, cell-based; details: dose 100-400 nM
K562 [16] = assay: Induction of cell cycle arrest in human K562 cells assessed as downregulation of cyclin-B1 expression incubated for 48 hrs by Western blot analysis; format: functional, cell-based; details: dose 100-400 nM
K562 [17] = assay: Induction of apoptosis in human K562 cells assessed as viable cells at 100 nM incubated for 48 hrs by Annexin-V and PI staining based flow cytometry analysis (reference value: 93.87%); format: functional; details: read-out: Activity
K562 [18] = assay: Induction of apoptosis in human K562 cells assessed as early apoptotic cells at 100 nM incubated for 48 hrs by Annexin-V and PI staining based flow cytometry analysis (reference value: 1.98%); format: functional
K562 [19] = assay: Induction of apoptosis in human K562 cells assessed as late apoptotic cells at 100 nM incubated for 48 hrs by Annexin-V and PI staining based flow cytometry analysis (reference value: 2.42%); format: functional
K562 [20] = assay: Induction of apoptosis in human K562 cells assessed as necrotic cells at 100 nM incubated for 48 hrs by Annexin-V and PI staining based flow cytometry analysis (reference value: 1.72%); format: functional
K562 [21] = assay: Induction of apoptosis in human K562 cells assessed as viable cells at 200 nM incubated for 48 hrs by Annexin-V and PI staining based flow cytometry analysis (reference value: 93.87%); format: functional; details: read-out: Activity
K562 [22] = assay: Induction of apoptosis in human K562 cells assessed as early apoptotic cells at 200 nM incubated for 48 hrs by Annexin-V and PI staining based flow cytometry analysis (reference value: 1.98%); format: functional
K562 [23] = assay: Induction of apoptosis in human K562 cells assessed as late apoptotic cells at 200 nM incubated for 48 hrs by Annexin-V and PI staining based flow cytometry analysis (reference value: 2.42%); format: functional
K562 [24] = assay: Induction of apoptosis in human K562 cells assessed as necrotic cells at 200 nM incubated for 48 hrs by Annexin-V and PI staining based flow cytometry analysis (reference value: 1.72%); format: functional
K562 [25] = assay: Induction of apoptosis in human K562 cells assessed as viable cells at 400 nM incubated for 48 hrs by Annexin-V and PI staining based flow cytometry analysis (reference value: 93.87%); format: functional; details: read-out: Activity
K562 [26] = assay: Induction of apoptosis in human K562 cells assessed as early apoptotic cells at 400 nM incubated for 48 hrs by Annexin-V and PI staining based flow cytometry analysis (reference value: 1.98%); format: functional
K562 [27] = assay: Induction of apoptosis in human K562 cells assessed as late apoptotic cells at 400 nM incubated for 48 hrs by Annexin-V and PI staining based flow cytometry analysis (reference value: 2.42%); format: functional
K562 [28] = assay: Induction of apoptosis in human K562 cells assessed as necrotic cells at 400 nM incubated for 48 hrs by Annexin-V and PI staining based flow cytometry analysis (reference value: 1.72%); format: functional
Cell membrane [29] = assay: Induction of mitochondrial membrane depolarization in human K562 cells assessed as lower right phase cells at […] incubated for 48 hrs by JC-1 staining based flow cytometry analysis; details: Mitochondria
Cell membrane [30] = assay: Induction of mitochondrial membrane depolarization in human K562 cells incubated for 48 hrs by JC-1 staining based flow cytometry analysis; details: Mitochondria, dose […]
K562 [31] = assay: Induction of ROS generation in human K562 cells incubated for 48 hrs by DCFH-DA staining based flow cytometry analysis; format: functional, cell-based; details: dose […]
K562 [32] = assay: Induction of ROS generation in human K562 cells at 400 nM incubated for 48 hrs by DCFH-DA staining based flow cytometry analysis (reference value: 4.82%); format: functional

C=C1C(=O)[C@@]23C(=O)OC[C@]4(C=CCC(C)(C)[C@H]4C=O)[C@@H]2CC[C@@H]1[C@H]3OC(=O)/C=C/c1cccnc1 showed an IC50 (K562 [1]) of 0.4 µM, an IC50 (SW480) of 0.48 µM and an IC50 (MDA-MB-231) of 0.98 µM. For the same compound, the IC50 (SMMC-7721) was 0.56 µM, the “Ratio IC50” value (K562 [2]) was 10 and the IC50 at 72 h [3] was 4.28 µM. For the same compound, the selectivity ratio [4] was 7.64, the Activity (K562 [5]) was 64.33% and the Activity (K562 [6]) was 15.07%. For the same compound, the Activity (K562 [7]) was 20.6%, the Activity (K562 [8]) was 61.3% and the Activity (K562 [9]) was 13.9%. For the same compound, the Activity (K562 [10]) was 24.8%, the Activity (K562 [11]) was 55.2% and the Activity (K562 [12]) was 20.53%. The Activity (K562 [13]) was 24.28%, the Activity (K562 [14]) was “Dose-Dependent Effect” and the Activity (K562 [15]) was “Dose-Dependent Effect”. For the same compound, the Activity (K562 [16]) was “Dose-Dependent Effect”, the viability at 0.1 µM (K562 [17]) was 86% and the Activity (K562 [18]) was 5.01%. For the same compound, the Activity (K562 [19]) was 5.59%, the Activity (K562 [20]) was 3.37% and the viability at 0.2 µM (K562 [21]) was 80.9%. It also gave an Activity (K562 [22]) of 7.6%, an Activity (K562 [23]) of 7.23% and an Activity (K562 [24]) of 4.23%. The viability at 0.4 µM (K562 [25]) was 68.7%, the Activity (K562 [26]) was 9.41% and the Activity (K562 [27]) was 15.5%. For the same compound, the Activity (K562 [28]) was 6.37%, the Activity (Cell membrane [29]) was 28.4% and the Activity (Cell membrane [30]) was “Dose-Dependent Effect”. For the same compound, the Activity (K562 [31]) was “Dose-Dependent Effect” and the Activity (K562 [32]) was 27.83%.
